Results as given in article PMC8286840, “Identifying SARS-CoV-2 antiviral compounds by screening for small molecule inhibitors of Nsp3 papain-like protease” (Biochemical Journal, 2021).
Counter-ions that a name gives are not always drawn. Like-named read-outs stand apart in the source and are kept apart here.

Legend:
[1] = biological target: T1, SARS-CoV-2 PLpro (nsp3 1564–1878) (Severe acute respiratory syndrome coronavirus 2, UniProt P0DTD1); assay: biochemical; parameters: FRET-quenched peptide (Pro3) cleavage by PLpro, 10 min pre-incubation, slope over 20 min, normalised to no-compound control; conditions: low concentration screen, read-out: % of control remaining
[2] = biological target: T1, SARS-CoV-2 PLpro (nsp3 1564–1878); assay: biochemical; parameters: FRET-quenched peptide (Pro3) cleavage by PLpro, 10 min pre-incubation, slope over 20 min, normalised to no-compound control; conditions: high concentration screen, read-out: % of control remaining

COc1ccccc1N1CCN(CCCNc2cc(=O)n(C)c(=O)n2C)CC1 [Urapidil hydrochloride]
remaining activity at 1.25 µM ([1]; Well no.=1476): 98.2% | remaining activity at 3.75 µM ([2]; Well no.=1476): 97.2%

O=C1NCCSc2c1sc1ccc(O)cc21 [kb NB 142-70]
remaining activity at 1.25 µM ([1]; Well no.=6738): 92% | remaining activity at 3.75 µM ([2]; Well no.=6738): 92.4%

O=C(/C=C/c1ccc(O)c(O)c1)O[C@@H]1C[C@](O)(C(=O)O)C[C@@H](O)[C@H]1O [Chlorogenic acid]
remaining activity at 1.25 µM ([1]; Well no.=3510): 103% | remaining activity at 3.75 µM ([2]; Well no.=3510): 103%

O=C(O)CCc1c[nH]c2ccccc12 [3-Indolepropionic acid]
remaining activity at 1.25 µM ([1]; Well no.=6597): 99.7% | remaining activity at 3.75 µM ([2]; Well no.=6597): 102%

O=c1oc2cc(O)ccc2s1 [Tioxolone]
remaining activity at 1.25 µM ([1]; Well no.=4952): 95.3% | remaining activity at 3.75 µM ([2]; Well no.=4952): 91.8%

Cc1cn2cc(C(=O)N(C)CCO)cc(N[C@@H]3CCOc4cccc(C)c43)c2n1 [PF-03716556]
remaining activity at 1.25 µM ([1]; Well no.=6006): 97.5% | remaining activity at 3.75 µM ([2]; Well no.=6006): 96%

CN1CCC(NC(=O)c2cc(-c3c(O)cc(O)cc3Oc3ccc([N+](=O)[O-])cc3)on2)CC1 [NMS-E973]
remaining activity at 1.25 µM ([1]; Well no.=8620): 94.8% | remaining activity at 3.75 µM ([2]; Well no.=8620): 89.2%

CCN(CCCc1ccccc1)CCCc1ccccc1 [Alverine (citrate)]
remaining activity at 1.25 µM ([1]; Well no.=8203): 106% | remaining activity at 3.75 µM ([2]; Well no.=8203): 106%

CCCCC[C@H](CC(=O)NO)C(=O)N[C@H](C(=O)N1CCC[C@H]1CO)C(C)C [Actinonin]
remaining activity at 1.25 µM ([1]; Well no.=21): 97.8% | remaining activity at 3.75 µM ([2]; Well no.=21): 97.8%

CCN(CC)C(=O)c1ccc(C2=CC3(CCNCC3)Oc3cccc(O)c32)cc1 [ADL-5859]
remaining activity at 1.25 µM ([1]; Well no.=8013): 92.2% | remaining activity at 3.75 µM ([2]; Well no.=8013): 85.8%

NC(=O)c1cccc(N)c1 [3-aminobenzamide]
remaining activity at 1.25 µM ([1]; Well no.=199): 101% | remaining activity at 3.75 µM ([2]; Well no.=199): 98.8%

COc1ccc2c(c1)[nH]c1c(C)nccc12 [Harmine]
remaining activity at 1.25 µM ([1]; Well no.=2092): 90.6% | remaining activity at 1.25 µM ([1]; Well no.=3681): 97.5% | remaining activity at 1.25 µM ([1]; Well no.=8343): 96.2% | remaining activity at 3.75 µM ([2]; Well no.=2092): 88.2% | remaining activity at 3.75 µM ([2]; Well no.=3681): 97.5% | remaining activity at 3.75 µM ([2]; Well no.=8343): 83.5%

NCCNC(=O)c1ncsc1-c1cccc(F)c1 [Ro 41-1049 hydrochloride]
remaining activity at 1.25 µM ([1]; Well no.=1496): 95.5% | remaining activity at 3.75 µM ([2]; Well no.=1496): 94.1%

Cc1ccc(C(=O)Nc2ccc(CN3CCN(C)CC3)c(C(F)(F)F)c2)cc1C#Cc1cnc2cccnn12 [Ponatinib (AP24534)]
remaining activity at 1.25 µM ([1]; Well no.=4913): 98.1% | remaining activity at 3.75 µM ([2]; Well no.=4913): 95.4%

N[C@H](CCC(=O)NCS(=O)(=O)O)C(=O)O [gamma-D-Glutamylaminomethylsulfonic acid]
remaining activity at 1.25 µM ([1]; Well no.=652): 92.4% | remaining activity at 3.75 µM ([2]; Well no.=652): 94%

Clc1ccc2c(c1)C(N1CCNCC1)=Nc1ccccc1O2 [Amoxapine]
remaining activity at 1.25 µM ([1]; Well no.=158): 97.7% | remaining activity at 1.25 µM ([1]; Well no.=1690): 102% | remaining activity at 3.75 µM ([2]; Well no.=158): 97.1% | remaining activity at 3.75 µM ([2]; Well no.=1690): 103%

CCCCCCCCCCCCCC[C@@H](O)[C@@H](O)[C@@H](CO)NC(C)=O [C2 Phytoceramide]
remaining activity at 1.25 µM ([1]; Well no.=3531): 99.2% | remaining activity at 3.75 µM ([2]; Well no.=3531): 104%

CC(=O)Nc1ccc(OC[C@](C)(O)C(=O)Nc2ccc([N+](=O)[O-])c(C(F)(F)F)c2)cc1 [Andarine (GTX-007)]
remaining activity at 1.25 µM ([1]; Well no.=5053): 102% | remaining activity at 3.75 µM ([2]; Well no.=5053): 104%

CC(C)(CCCCCCCCCCC(C)(C)CC(=O)O)CC(=O)O [MEDICA 16]
remaining activity at 1.25 µM ([1]; Well no.=5805): 91.5% | remaining activity at 3.75 µM ([2]; Well no.=5805): 91.6%

CCCCC/C=C\C/C=C\CCCCCCCCCCCC(=O)O [13(Z),16(Z)-Docosadienoic acid]
remaining activity at 1.25 µM ([1]; Well no.=4462): 100% | remaining activity at 3.75 µM ([2]; Well no.=4462): 101%

CC1=C(C(=O)O)N2C(=O)[C@@H](NC(=O)[C@H](N)c3ccccc3)[C@H]2SC1 [Cephalexin hydrate]
remaining activity at 1.25 µM ([1]; Well no.=34): 95.4% | remaining activity at 3.75 µM ([2]; Well no.=34): 95.3%

CC(CCc1ccc(O)cc1)NCCc1ccc(O)c(O)c1 (stereo not drawn) [Dobutamine hydrochloride]
remaining activity at 1.25 µM ([1]; Well no.=587): 97.5% | remaining activity at 3.75 µM ([2]; Well no.=587): 99.5%

O=C(NCc1ccccc1)c1csc(Nc2ccncn2)n1 [Thiazovivin]
remaining activity at 1.25 µM ([1]; Well no.=4867): 100% | remaining activity at 3.75 µM ([2]; Well no.=4867): 102%

O=c1[nH]c2ccccc2n1C1CCN(CCCC(c2ccc(F)cc2)c2ccc(F)cc2)CC1 [Pimozide]
remaining activity at 1.25 µM ([1]; Well no.=1094): 93.3% | remaining activity at 1.25 µM ([1]; Well no.=1595): 99.2% | remaining activity at 3.75 µM ([2]; Well no.=1094): 95% | remaining activity at 3.75 µM ([2]; Well no.=1595): 95.7%

CN(C)CCCC1(c2ccc(F)cc2)OCc2cc(C#N)ccc21 (stereo not drawn) [Citalopram hydrobromide]
remaining activity at 1.25 µM ([1]; Well no.=90): 95% | remaining activity at 3.75 µM ([2]; Well no.=90): 100%

CN1CC(=O)N2[C@H](c3ccc4c(c3)OCO4)c3[nH]c4ccccc4c3C[C@@H]2C1=O [Tadalafil]
remaining activity at 1.25 µM ([1]; Well no.=8188): 95% | remaining activity at 3.75 µM ([2]; Well no.=8188): 95.9%

C[Se]CC[C@H](N)C(=O)O [Selenomethionine]
remaining activity at 1.25 µM ([1]; Well no.=4141): 97.8% | remaining activity at 3.75 µM ([2]; Well no.=4141): 98.7%

CNCCCC1c2ccccc2C=Cc2ccccc21 [Protriptyline hydrochloride]
remaining activity at 1.25 µM ([1]; Well no.=1209): 108% | remaining activity at 3.75 µM ([2]; Well no.=1209): 104%

Cc1nn(C)c2nc(NNC(=O)Nc3cc(Cl)nc(Cl)c3)cc(C(C)C)c12 [N-(2,6-dichloro-4-pyridinyl)-2-(4-isopropyl-1,3-dimethyl-1H-pyrazolo[3,4-b]pyridin-6-yl)hydrazinecarboxamide]
remaining activity at 1.25 µM ([1]; Well no.=5923): 104% | remaining activity at 3.75 µM ([2]; Well no.=5923): 100%

NC(=O)NCCC[C@H](N)C(=O)O [L-Citrulline]
remaining activity at 1.25 µM ([1]; Well no.=7159): 108% | remaining activity at 3.75 µM ([2]; Well no.=7159): 102%

Cc1cc(O)c2c(=O)c3c(O)cc(O)c4c5c(O)cc(O)c6c(=O)c7c(O)cc(C)c8c1c2c(c34)c(c78)c65 [Hypericin]
remaining activity at 1.25 µM ([1]; Well no.=520): 109% | remaining activity at 1.25 µM ([1]; Well no.=3725): 96.4% | remaining activity at 3.75 µM ([2]; Well no.=520): 109% | remaining activity at 3.75 µM ([2]; Well no.=3725): 97.9%

Cc1ccc2c(=O)c3cccc(CC(=O)O)c3oc2c1C [Vadimezan]
remaining activity at 1.25 µM ([1]; Well no.=8465): 104% | remaining activity at 3.75 µM ([2]; Well no.=8465): 97.4%

O=C(/C=C/c1cccnc1)NCCCCC1CCN(C(=O)c2ccccc2)CC1 [APO866 (FK866)]
remaining activity at 1.25 µM ([1]; Well no.=5123): 99% | remaining activity at 3.75 µM ([2]; Well no.=5123): 94.7%

COC1=CC(=O)C[C@@H](C)[C@]12Oc1c(Cl)c(OC)cc(OC)c1C2=O [(+)-Griseofulvin]
remaining activity at 1.25 µM ([1]; Well no.=3354): 88.9% | remaining activity at 3.75 µM ([2]; Well no.=3354): 90.2%
